By MIC is commonly meant the smallest concentration in the dilution series that meets the test's criterion for growth inhibition. The pIC50 is the IC50 on a negative log10 scale, so that one unit is a factor of ten.

The source of these data is US20100022509A1, “Inhibitors of MshC and Homologs Thereof, and Methods of Identifying Same” (priority 2006, published 2010).

What all share (format): cell-based
The subject of test [1] is M. smegmatis. Nature of the test: Growth of M. smegmatis parent and MSH mutant strains in the presence of INH. The procedure: Using the parental strain mc^2155, the Myco504 mutant in mshB that produces 5-10% of normal MSH in exponential growth, and the mutant strain 49 that produces 0% of normal MSH, the effect of 0-30 μg per ml INH upon growth was examined. […] This is seen in FIG. 13 for growth in the presence of 10 μg per ml INH.

For test [2], the system named is mycothiol biosynthesis in M. smegmatis mc^2155. Kind of test: Inhibitor studies with Mycobacterium smegmatis: GlcN-Ins and MSH content by HPLC. Particulars: 30 μM, after 12 h. The procedure: (§1) Inhibitor studies with Mycobaterium smagmatis. An exponential culture of M. smegmatis mc^2155 in Middlebrook 7H9 medium containing 0.05% Tween 80 and 1% glucose was used to inoculate a culture in the same medium but with 0.4% glucose to A600=0.05. The inhibitor NTF1836 was added from a stock solution in Me2SO at 0, 10, 20, 30 and 40 μM to duplicate 40 ml aliquots of the culture in 125 ml flasks to produce a final Me2SO content of ≦0.04%. The cells were incubated at 37° C. and 250 rpm. At A600˜0.25 and subsequent doublings in cell density, a volume of culture was removed sufficient to provide analysis of GlcN-Ins and MSH as described above.

Test [3] deals with MshC within M. tuberculosis. Kind of test: Mycothiol and GlcN-Ins content of M. tuberculosis, day 7.
Test [4] has as its system M. smegmatis mc^2155. Kind of test: Inhibitor studies with Mycobacterium smegmatis: growth. Here is the method:
as §1

For test [5], the system named is Mycobacterium smegmatis mc^2155 ATCC 700084. Kind of test: MIC by broth dilution assay.
For test [6], the system named is Enterococcus faecalis ATCC 29212. Nature of the test: MIC by broth dilution assay. (Dilution methods test growth across graded concentrations, often in twofold steps.)
For test [7], the system named is Staphylococcus aureus. Kind of test: MIC by broth dilution assay. Particulars: for MIC: n = 3.
The subject of test [8] is M. tuberculosis. Nature of the test: Growth of M. tuberculosis in broth culture, 7 days (optical density, plate counts). Particulars: for OD600: day 7, starting OD600 0.08.

pIC50: −log10 of the molar value. Converted amounts (≈) assume the structure as drawn.

`NNC(=O)c1ccncc1` [INH, isoniazid]: in test [1] (2 μg per ml INH and above), the “growth of strain 49 (0% MSH)” value was “no effect” and the “growth of strain mc^2155” value is on record as “became inhibited”. Further, in test [1] (10 μg per ml INH), the “growth of strain 49 (0% MSH)” value is reported as “grows at the same rate as in the absence of INH”, the “growth of strain Myco504 (5-10% MSH)” value is listed as “markedly inhibited” and the “growth of strain mc^2155” value is recorded as “markedly inhibited”.

For `CN(CCCNC(=O)c1ccc2c(c1)N(Cc1cccc(Cl)c1)C(=O)c1ccccc1[S+]2[O-])C1CCCCC1` (centres unmarked) [NTF1836], in test [2], the GlcN-Ins content result was “twice the normal level”. Also, the GlcN-Ins worked out at 2.77 ± 0.09 nmoles/10^9 bacteria in test [3] (20 uM), 3.49 ± 0.10 nmoles/10^9 bacteria in test [3] (30 uM), 4.28 nmoles/10^9 bacteria in test [3] (50 uM) and 4.22 nmoles/10^9 bacteria in test [3] (75 uM). Moreover, the GlcN-Ins/mycothiol turned out to be 0.09 in test [3] (20 uM), 0.18 in test [3] (30 uM), 0.428 in test [3] (50 uM) and 1.21 in test [3] (75 uM). Moreover, the mycothiol in test [3] (20 uM) was found to be 27.8 ± 2.5 nmoles/10^9 bacteria; in test [3] (30 uM), 19.1 ± 2.5 nmoles/10^9 bacteria; in test [3] (50 uM), 10.0 nmoles/10^9 bacteria; in test [3] (75 uM) it was 3.5 nmoles/10^9 bacteria. The growth rate result in test [4] (30 μM) is recorded as “half the normal rate”. In addition, the growth result in test [4] (40 μM, after 8 h) is “completely inhibited”. Moreover, the “growth inhibition, in words” value in test [5] (M. smegmatis), in test [6] and in test [7] (Staphylococcus aureus) was “inhibitory” throughout. The MIC in test [5] (Mycolicibacterium smegmatis, ATCC700084|MC^2155, Middlebrook 7H9 + 1% glucose, n = 3) came to 16 µg/mL; in test [6] (ATCC29212, Todd Hewitt, n = 3), 64 µg/mL (≈ 113 µM); in test [7] (ATCC25923, Staphylococcus aureus ATCC 25923, TSB), 128 µg/mL (≈ 227 µM); in test [7] (Staphylococcus aureus RN450, TSB), 64 µg/mL (≈ 113 µM). The OD600 in test [8] (20 uM) came out at 1.304 ± 0.014; in test [8] (30 uM), 0.600 ± 0.049; in test [8] (50 uM) it was 0.271; in test [8] (75 uM), 0.12. Further, the pIC50 in test [8] (Mycobacterium tuberculosis, 168 h, 7 days, by optical density and by plate counts of viable bacteria, read-out: IC50 for growth inhibition of M. tuberculosis) is 4.52 to 4.70.
